The subject of test [1] is Helix aspersa agglutinin (HAA). The experiment in a line: SPR competition assay. Type of test: binding, Cornu aspersum. To be noted: 8 µM mIgA1κ as competed analyte, 25 °C; competitive.
Test [2] concerns the target T1, Helix pomatia agglutinin (HPA) (Helix pomatia, UniProt Q2F1K8).
T1 sequence (Q2F1K8 20-121): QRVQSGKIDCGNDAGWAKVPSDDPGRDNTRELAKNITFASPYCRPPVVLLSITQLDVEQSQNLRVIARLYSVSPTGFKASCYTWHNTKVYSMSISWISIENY
The experiment in a line: SPR competition assay. Type of test: binding. To be noted: 8 µM mIgA1κ as competed analyte, 25 °C; competitive.

Structures are written as SMILES.

Turning to `CC(=O)N[C@H]1C(O)O[C@H](CO)[C@H](O)[C@@H]1O` (some centres unmarked) [GalNAc], the IC50 in test [1] was determined as 81 ± 8 µM; in test [2] it was 220 ± 20 µM.
